How the values were obtained:
Type in all cases: functional
K562 = test: Cytotoxicity against Homo sapiens (human) K562 cells after 48 hr by sulforhodamine B assay; settings: K562, 48 h; for CC50: read-out: LC50 (the source's name)
LOX IMVI = test: Cytotoxicity against Homo sapiens (human) LOXIMVI cells after 48 hr by sulforhodamine B assay
HCT-15 = test: Cytotoxicity against Homo sapiens (human) HCT15 cells after 48 hr by sulforhodamine B assay; settings: HCT-15, 48 h; for CC50: read-out: LC50 (the source's name)
NCI-H226 = test: Cytotoxicity against Homo sapiens (human) NCI-H226 cells after 48 hr by sulforhodamine B assay; settings: NCI-H226, 48 h; for CC50: read-out: LC50 (the source's name)
BT-549 = test: Cytotoxicity against Homo sapiens (human) BT549 cells after 48 hr by sulforhodamine B assay; settings: BT-549, 48 h
786-0 = test: Cytotoxicity against Homo sapiens (human) 786-0 cells after 48 hr by sulforhodamine B assay; settings: 786-0, 48 h
OVCAR-8 = test: Cytotoxicity against Homo sapiens (human) OVCAR8 cells after 48 hr by sulforhodamine B assay; settings: OVCAR-8, 48 h
A498 = test: Cytotoxicity against Homo sapiens (human) A498 cells after 48 hr by sulforhodamine B assay; settings: A498, 48 h
[1] = Cytotoxicity against Homo sapiens (human) NCI-ADR-RES cells after 48 hr by sulforhodamine B assay
NCI-H460 = test: Cytotoxicity against Homo sapiens (human) NCI-H460 cells assessed as cell growth at 10^-4 M after 48 hr by Alamar blue assay; settings: NCI-H460, 48 h, read-out: Activity
MCF7 = test: Cytotoxicity against Homo sapiens (human) MCF7 cells assessed as cell growth at 10^-4 M after 48 hr by Alamar blue assay; settings: MCF7, 48 h, read-out: Activity
UACC-257 = test: Cytotoxicity against Homo sapiens (human) UACC257 cells after 48 hr by sulforhodamine B assay; settings: UACC-257, 48 h
SF-539 = test: Cytotoxicity against Homo sapiens (human) SF539 cells after 48 hr by sulforhodamine B assay; settings: SF-539, 48 h
A549 = test: Cytotoxicity against Homo sapiens (human) A549 cells after 48 hr by sulforhodamine B assay; settings: A549, 48 h; for CC50: read-out: LC50 (the source's name)
SN12C = test: Cytotoxicity against Homo sapiens (human) SN12C cells after 48 hr by sulforhodamine B assay
SNB-19 = test: Cytotoxicity against Homo sapiens (human) SNB19 cells after 48 hr by sulforhodamine B assay; settings: SNB-19, 48 h
NCI-H23 = test: Cytotoxicity against Homo sapiens (human) NCI-H23 cells after 48 hr by sulforhodamine B assay; settings: NCI-H23, 48 h; for CC50: read-out: LC50 (the source's name)
ACHN = test: Cytotoxicity against Homo sapiens (human) ACHN cells after 48 hr by sulforhodamine B assay; settings: for CC50: read-out: LC50 (the source's name)
NCI-H522 = test: Cytotoxicity against Homo sapiens (human) NCI-H522 cells after 48 hr by sulforhodamine B assay; settings: NCI-H522, 48 h; for CC50: read-out: LC50 (the source's name)
UACC-62 = test: Cytotoxicity against Homo sapiens (human) UACC62 cells after 48 hr by sulforhodamine B assay; settings: UACC-62, 48 h
SF-268 = test: Cytotoxicity against Homo sapiens (human) SF268 cells after 48 hr by sulforhodamine B assay; settings: SF-268, 48 h; for CC50: read-out: LC50 (the source's name)
CCRF-CEM = test: Cytotoxicity against Homo sapiens (human) CCRF-CEM cells after 48 hr by sulforhodamine B assay; settings: for CC50: read-out: LC50 (the source's name)
UO-31 = test: Cytotoxicity against Homo sapiens (human) UO31 cells after 48 hr by sulforhodamine B assay; settings: UO-31, 48 h
M14 = test: Cytotoxicity against Homo sapiens (human) M14 cells after 48 hr by sulforhodamine B assay; settings: M14, 48 h
CAKI-1 = test: Cytotoxicity against Homo sapiens (human) Caki1 cells after 48 hr by sulforhodamine B assay; settings: CAKI-1, 48 h; for CC50: read-out: LC50 (the source's name)
U-251 = test: Cytotoxicity against Homo sapiens (human) U251 cells after 48 hr by sulforhodamine B assay; settings: U-251, 48 h
SK-MEL-28 = test: Cytotoxicity against Homo sapiens (human) SK-MEL-28 cells after 48 hr by sulforhodamine B assay; settings: SK-MEL-28, 48 h
HOP-92 = test: Cytotoxicity against Homo sapiens (human) HOP92 cells after 48 hr by sulforhodamine B assay; settings: HOP-92, 48 h; for CC50: read-out: LC50 (the source's name)

For `ClCc1ccc(Cn2cnc3c(Cl)ncnc32)cc1`, the GI50 (K562) was 2.91 µM, the TGI (K562) was > 100 µM and the CC50 (K562) was > 100 µM. For the same compound, the GI50 (LOX IMVI) was 1 µM, the LC50 (LOX IMVI) was 13.5 µM and the TGI (LOX IMVI) was 3.46 µM. The GI50 (HCT-15) was 1.95 µM, the TGI (HCT-15) was 12.6 µM and the CC50 (HCT-15) was 63.1 µM. It also gave a GI50 (NCI-H226) of 1.58 µM, a TGI (NCI-H226) of 7.41 µM and a CC50 (NCI-H226) of 49 µM. The GI50 (BT-549) was 5.62 µM, the LC50 (50% lethal concentration) (BT-549) was 57.5 µM and the TGI (BT-549) was 21.4 µM. For the same compound, the GI50 (786-0) was 1.02 µM, the LC50 (786-0) was 21.4 µM and the TGI (786-0) was 3.98 µM. It also gave a GI50 (OVCAR-8) of 3.02 µM, an LC50 (concentration killing 50% of cells) (OVCAR-8) of 64.6 µM and a TGI (OVCAR-8) of 15.1 µM. It also gave a GI50 (A498) of 12.9 µM, an LC50 (lethal concentration, 50% cell kill) (A498) of 57.5 µM and a TGI (A498) of 26.9 µM. For the same compound, the GI50 [1] was 1.51 µM, the LC50 (concentration killing 50% of cells) [1] was 38.9 µM and the TGI [1] was 5.49 µM. It also gave a growth at 100 µM (NCI-H460) of 0%, a growth at 100 µM (MCF7) of 7% and a GI50 (UACC-257) of 7.41 µM. For the same compound, the LC50 (concentration killing 50% of cells) (UACC-257) was 97.7 µM, the TGI (UACC-257) was 28.8 µM and the LC50 (concentration killing 50% of cells) (SF-539) was 70.8 µM. For the same compound, the GI50 (A549) was 1.38 µM, the TGI (A549) was 18.2 µM and the CC50 (A549) was 51.3 µM. For the same compound, the GI50 (SN12C) was 1.02 µM, the LC50 (50% lethal concentration) (SN12C) was 5.37 µM and the TGI (SN12C) was 2.34 µM. For the same compound, the GI50 (SNB-19) was 3.63 µM, the LC50 (SNB-19) was 89.1 µM and the TGI (SNB-19) was 21.9 µM. For the same compound, the GI50 (NCI-H23) was 0.66 µM, the TGI (NCI-H23) was 2.45 µM and the CC50 (NCI-H23) was 7.76 µM. It also gave a GI50 (ACHN) of 0.31 µM, a TGI (ACHN) of 1.28 µM and a CC50 (ACHN) of 3.8 µM. The GI50 (NCI-H522) was 3.54 µM, the TGI (NCI-H522) was > 100 µM and the CC50 (NCI-H522) was > 100 µM. The GI50 (UACC-62) was 1.23 µM, the LC50 (concentration causing 50% net cell kill) (UACC-62) was 9.45 µM and the TGI (UACC-62) was 33.9 µM. For the same compound, the GI50 (SF-268) was 0.64 µM, the TGI (SF-268) was 2.88 µM and the CC50 (SF-268) was 9.33 µM. For the same compound, the GI50 (CCRF-CEM) was 0.51 µM, the TGI (CCRF-CEM) was > 100 µM and the CC50 (CCRF-CEM) was > 100 µM. The GI50 (UO-31) was 2.08 µM, the LC50 (concentration causing 50% net cell kill) (UO-31) was > 100 µM and the TGI (UO-31) was 4.57 µM. The GI50 (M14) was 1.28 µM, the LC50 (M14) was 9.12 µM and the TGI (M14) was 3.46 µM. It also gave a GI50 (CAKI-1) of 0.26 µM, a TGI (CAKI-1) of 0.64 µM and a CC50 (CAKI-1) of 2.39 µM. For the same compound, the GI50 (U-251) was 1.25 µM, the LC50 (concentration killing 50% of cells) (U-251) was 7.41 µM and the TGI (U-251) was 3.01 µM. The GI50 (SK-MEL-28) was 7.94 µM, the LC50 (concentration killing 50% of cells) (SK-MEL-28) was > 100 µM and the TGI (SK-MEL-28) was 30.9 µM. For the same compound, the GI50 (HOP-92) was 6.02 µM, the TGI (HOP-92) was 66.1 µM and the CC50 (HOP-92) was > 100 µM.
With `Nc1nc(Cl)c2ncn(Cc3ccc(CCl)cc3)c2n1` the TGI (K562) was > 100 µM, the CC50 (K562) was > 100 µM and the LC50 (LOX IMVI) was > 100 µM. It also gave a TGI (LOX IMVI) of 43.6 µM, a TGI (HCT-15) of 19.9 µM and a CC50 (HCT-15) of 67.6 µM. For the same compound, the TGI (NCI-H226) was 37.1 µM, the CC50 (NCI-H226) was > 100 µM and the LC50 (50% lethal concentration) (BT-549) was 69.2 µM. For the same compound, the TGI (BT-549) was 24.6 µM, the LC50 (786-0) was > 100 µM and the TGI (786-0) was 93.3 µM. The LC50 (concentration killing 50% of cells) (OVCAR-8) was > 100 µM, the TGI (OVCAR-8) was 33.1 µM and the LC50 (lethal concentration, 50% cell kill) (A498) was > 100 µM. For the same compound, the TGI (A498) was 85.1 µM, the LC50 (concentration killing 50% of cells) [1] was > 100 µM and the TGI [1] was 26.9 µM. The growth at 100 µM (NCI-H460) was 0%, the growth at 100 µM (MCF7) was 0% and the LC50 (concentration killing 50% of cells) (UACC-257) was > 100 µM. For the same compound, the TGI (UACC-257) was 47.9 µM, the LC50 (concentration killing 50% of cells) (SF-539) was 46.8 µM and the TGI (SF-539) was 10 µM. The TGI (A549) was 75.9 µM, the CC50 (A549) was > 100 µM and the LC50 (50% lethal concentration) (SN12C) was 60.3 µM. It also gave a TGI (SN12C) of 26.9 µM, an LC50 (SNB-19) of 46.8 µM and a TGI (SNB-19) of 19.9 µM. The TGI (NCI-H23) was 30.2 µM, the CC50 (NCI-H23) was 77.6 µM and the TGI (ACHN) was 25.1 µM. It also gave a CC50 (ACHN) of 64.6 µM, a GI50 (NCI-H522) of 10.9 µM and a TGI (NCI-H522) of 25.7 µM. For the same compound, the CC50 (NCI-H522) was 63.1 µM, the LC50 (concentration causing 50% net cell kill) (UACC-62) was 53.7 µM and the TGI (UACC-62) was 8.13 µM. For the same compound, the TGI (SF-268) was 8.32 µM, the CC50 (SF-268) was 38.9 µM and the TGI (CCRF-CEM) was > 100 µM. The CC50 (CCRF-CEM) was > 100 µM, the LC50 (concentration causing 50% net cell kill) (UO-31) was 55 µM and the TGI (UO-31) was 25.1 µM. The LC50 (M14) was > 100 µM, the TGI (M14) was 38 µM and the TGI (CAKI-1) was 9.77 µM. For the same compound, the CC50 (CAKI-1) was 34.7 µM, the LC50 (concentration killing 50% of cells) (U-251) was 44.7 µM and the TGI (U-251) was 12 µM. The LC50 (concentration killing 50% of cells) (SK-MEL-28) was > 100 µM, the TGI (SK-MEL-28) was 44.7 µM and the TGI (HOP-92) was > 100 µM. For the same compound, the CC50 (HOP-92) was > 100 µM.
